Source: patent US20230295157A1, “3-(1H-IMIDAZOL-2-YL)-2,3,8,8A-TETRAHYDROINDOLIZIN-5(1H)-ONE DERIVATIVES USEFUL AS FACTOR XIA INHIBITORS” (JANSSEN PHARMACEUTICA NV, priority 2020, published 2023)
Where two headings read alike, the source gives them in different places.

Tests used:
[1] = molecular target: Factor XIa (Homo sapiens (Human), UniProt P03951); assay: Factor XIa inhibition assay (FLINT) utilizing a fluorophore-quencher pair peptide substrate; type: biochemical; details: 30 min preincubation, kinetic reads over 30 min, read-out: FXIa Kin Inh IC50
In short: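 FXIa ([…]) preincubated 30 min with compound (11-point 3-fold dilution, top 100 nM, 2% DMSO), then 15 μM quenched FXI Arg146-based peptide added; Tris pH 7.5, CaCl2, BSA, CHAPS. Fluorescence 485/520 nm read kinetically every 5 min over 30 min at RT; IC50 by 4-parameter fit.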

[2] = molecular target: human plasma kallikrein (Homo sapiens (Human), UniProt P03952); assay: Kallikrein inhibition assay (FLINT) utilizing a quenched AMC peptide substrate; type: biochemical; details: 30 min preincubation, kinetic reads over 30 min, Z-Gly-Pro-Arg-AMC substrate 50 μM; read-out: Kallikrein Kin Inh IC50
In short: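 Enzyme (2 nM final) pre-incubated 30 min at room temperature with compound (11-point, 3-fold, top 1 μM, 2% DMSO), then 50 μM Z-Gly-Pro-Arg-AMC added in Tris pH 7.5 buffer. Kinetic fluorescence 340/440 nm every 5 min over 30 min; IC50 from 4-parameter logistic fit.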

[3] = 5Fam-KLTRAETV-K5Tamra substrate 15 μM
[4] = 5Fam-[…]-K5Tamra substrate 15 μM

Chain of Factor XIa (P03951 388-625): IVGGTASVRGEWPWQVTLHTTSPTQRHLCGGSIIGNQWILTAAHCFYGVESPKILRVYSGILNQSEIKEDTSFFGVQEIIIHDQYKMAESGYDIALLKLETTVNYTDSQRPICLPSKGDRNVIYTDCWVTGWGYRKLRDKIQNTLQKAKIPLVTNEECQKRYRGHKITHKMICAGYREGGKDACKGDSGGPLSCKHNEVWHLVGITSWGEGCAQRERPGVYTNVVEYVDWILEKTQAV
Chain of Factor XIa (P03951 19-387 partner): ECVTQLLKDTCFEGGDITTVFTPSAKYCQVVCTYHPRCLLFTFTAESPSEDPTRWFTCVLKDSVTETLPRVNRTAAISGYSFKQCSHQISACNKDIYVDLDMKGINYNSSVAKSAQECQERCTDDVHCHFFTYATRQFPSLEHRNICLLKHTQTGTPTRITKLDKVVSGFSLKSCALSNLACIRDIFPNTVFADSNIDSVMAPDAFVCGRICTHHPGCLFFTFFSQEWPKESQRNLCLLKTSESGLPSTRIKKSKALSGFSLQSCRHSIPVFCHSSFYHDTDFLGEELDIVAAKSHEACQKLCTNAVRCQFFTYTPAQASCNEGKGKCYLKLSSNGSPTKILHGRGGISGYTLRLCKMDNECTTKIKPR
Chain of human plasma kallikrein (P03952 391-638): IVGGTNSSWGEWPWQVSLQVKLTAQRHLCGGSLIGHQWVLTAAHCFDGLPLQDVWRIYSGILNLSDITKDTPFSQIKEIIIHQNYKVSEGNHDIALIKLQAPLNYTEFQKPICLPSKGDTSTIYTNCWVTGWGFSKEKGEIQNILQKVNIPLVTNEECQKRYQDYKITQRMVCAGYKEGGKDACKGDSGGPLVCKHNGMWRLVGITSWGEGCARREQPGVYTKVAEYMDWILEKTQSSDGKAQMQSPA
Chain of human plasma kallikrein (P03952 20-390 partner): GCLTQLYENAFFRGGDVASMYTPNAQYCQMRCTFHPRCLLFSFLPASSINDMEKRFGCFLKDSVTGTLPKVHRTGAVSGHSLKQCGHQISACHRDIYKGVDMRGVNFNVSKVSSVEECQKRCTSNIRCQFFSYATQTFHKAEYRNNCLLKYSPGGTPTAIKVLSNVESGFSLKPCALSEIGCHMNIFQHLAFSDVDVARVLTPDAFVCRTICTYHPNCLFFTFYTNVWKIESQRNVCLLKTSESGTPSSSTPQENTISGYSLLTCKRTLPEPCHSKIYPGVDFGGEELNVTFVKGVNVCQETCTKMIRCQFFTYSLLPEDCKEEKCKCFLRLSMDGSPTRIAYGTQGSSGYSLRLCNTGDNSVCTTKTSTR

Row | IC50 [1, 3] [nM] | IC50 [2] [nM] | IC50 [1, 4] [nM] | Compound
1 | 7.5 | 12.2 |  | CC(C)(CO)Nc1nccc(-c2cnc([C@@H]3CC[C@@H]4CC(c5cc(Cl)ccc5-n5cnnn5)=CC(=O)N43)[nH]2)c1F [Example 79, (3S,8aR)-7-[5-chloro-2-(tetrazol-1-yl)phenyl]-3-[5-[3-fluoro-2-[(2-hydroxy-1,1-dimethyl-ethyl)amino]-4-pyridyl]-1H-imidazol-2-yl]-2,3,8,8a-tetrahydro-1H-indolizin-5-one]
2 |  | 110 | 12 | Nc1ccc(-c2cnc([C@@H]3CC[C@@H]4C(=O)N(c5cc(Cl)ccc5-n5cnnn5)CC(=O)N43)[nH]2)c(F)n1 (single isomer, unassigned) [Example 360, (6S*,8aR*)-6-(5-(6-amino-2-fluoropyridin-3-yl)-1H-imidazol-2-yl)-2-(5-chloro-2-(1H-tetrazol-1-yl)phenyl)hexahydropyrrolo[1,2-a]pyrazine-1,4-dione]
3 | 4.6 | 7.8 |  | NC(=O)c1ncc(-c2cnc([C@@H]3CC[C@@H]4CC(c5c(-n6cc(Cl)nn6)ccc(Cl)c5F)=CC(=O)N43)[nH]2)s1 [Example 208, 5-(2-((3S,8aR)-7-(3-Chloro-6-(4-chloro-1H-1,2,3-triazol-1-yl)-2-fluorophenyl)-5-oxo-1,2,3,5,8,8a-hexahydroindolizin-3-yl)-1H-imidazol-5-yl)thiazole-2-carboxamide]
4 | 22.5 | 15.5 |  | CCN(CCO)c1nccc(-c2cnc([C@@H]3CC[C@H]4CC(c5c(-n6cnnn6)ccc(Cl)c5F)=CC(=O)N43)[nH]2)c1F (single isomer, unassigned) [Example 135, (3S,8a*S)-7-(3-chloro-2-fluoro-6-(1H-tetrazol-1-yl)phenyl)-3-(5-(2-(ethyl(2-hydroxyethyl)amino)-3-fluoropyridin-4-yl)-1H-imidazol-2-yl)-2,3,8,8a-tetrahydroindolizin-5(1H)-one]
5 | 1.8 | 12.6 |  | O=C1C=C(c2c(-n3cnnn3)ccc(Cl)c2F)C[C@H]2CC[C@@H](c3ncc(-c4ccnc(CO)c4F)[nH]3)N12 [Example 222, (3S,8aR)-7-(3-Chloro-2-fluoro-6-(1H-tetrazol-1-yl)phenyl)-3-(5-(3-fluoro-2-(hydroxymethyl)pyridin-4-yl)-1H-imidazol-2-yl)-2,3,8,8a-tetrahydroindolizin-5(1H)-one]
6 |  | 9 | 0.6 | CNc1ccc(-c2cnc([C@@H]3CC[C@@H]4CC(c5cc(Cl)ccc5-n5cnnn5)=CC(=O)N43)[nH]2)c(F)n1 (single isomer, unassigned) [Example 98, (3S*,8aR)-7-(5-chloro-2-(1H-tetrazol-1-yl)phenyl)-3-(5-(2-fluoro-6-(methylamino)pyridin-3-yl)-1H-imidazol-2-yl)-2,3,8,8a-tetrahydroindolizin-5(1H)-one]
7 | 7.3 | 209 |  | Nc1ccc(-c2cnc([C@@H]3CC[C@@H]4CC(c5cc(Cl)ccc5-n5cnnn5)CC(=O)N43)[nH]2)c(F)n1 (stereo partly drawn) [Example 376, (3S,8aR)-3-(5-(6-amino-2-fluoropyridin-3-yl)-1H-imidazol-2-yl)-7-(5-chloro-2-(1H-tetrazol-1-yl)phenyl)hexahydroindolizin-5(1H)-one]
8 |  | 55.8 | 1.3 | O=C1C=C(c2c(-n3cnnn3)ccc(Cl)c2F)C[C@H]2CC[C@H](c3ncc(-c4ccnc(COCP(=O)(O)O)c4F)[nH]3)N12 (relative stereo) [Example 37, (((4-(24(3R*,8aR)-7-(3-chloro-2-fluoro-6-(1H-tetrazol-1-yl)phenyl)-5-oxo-1,2,3,5,8,8a-hexahydroindolizin-3-yl)-1H-imidazol-5-yl)-3-fluoropyridin-2-yl)methoxy)methyl)phosphonic acid]
9 | 0.8 | 1.5 |  | CC1=CCc2c(-c3cnc(C4CCC5CC(c6c(-n7cnnn7)ccc(Cl)c6F)=CC(=O)N54)[nH]3)ccnc21 (stereo not shown) [Example 374, 7-(3-chloro-2-fluoro-6-(1H-tetrazol-1-yl)phenyl)-3-(5-(7-methyl-5H-cyclopenta[b]pyridin-4-yl)-1H-imidazol-2-yl)-2,3,8,8a-tetrahydroindolizin-5(1H)-one]
10 | 1 | 1.5 |  | O=C(Nc1ccsc1-c1c[nH]c([C@@H]2CCC3CC(c4c(-n5cnnn5)ccc(Cl)c4F)=CC(=O)N32)n1)C1CC1 (stereo partly drawn) [Example 248, N-[2-[2-[(3S)-7-[3-Chloro-2-fluoro-6-(tetrazol-1-yl)phenyl]-5-oxo-2,3,8,8a-tetrahydro-1H-indolizin-3-yl]-1H-imidazol-4-yl]-3-thienyl]cyclopropanecarboxamide]
11 | 2.7 | 7.8 |  | O=C1C=C(c2c(-n3cnnn3)ccc(Cl)c2F)C[C@H]2CC[C@@H](c3ncc(-c4ccnc(C(F)(F)F)c4)[nH]3)N12 [Example 351, (3S,8aR)-7-(3-Chloro-2-fluoro-6-(1H-tetrazol-1-yl)phenyl)-3-(5-(2-(trifluoromethyl)pyridin-4-yl)-1H-imidazol-2-yl)-2,3,8,8a-tetrahydroindolizin-5(1H)-one]
12 | 0.4 | 7.5 |  | CS(=O)(=O)Nc1nccc(-c2cnc([C@@H]3CC[C@@H]4CC(c5c(-n6cnnn6)ccc(Cl)c5F)=CC(=O)N43)[nH]2)c1F [Example 367, N-(4-(2-((3S,8aR)-7-(3-chloro-2-fluoro-6-(1H-tetrazol-1-yl)phenyl)-5-oxo-1,2,3,5,8,8a-hexahydroindolizin-3-yl)-1H-imidazol-5-yl)-3-fluoropyridin-2-yl)methanesulfonamide]
13 |  | 1.1 | 0.2 | O=C1Nc2ccc(-c3cnc([C@@H]4CC[C@@H]5CC(c6c(-n7cnnn7)ccc(Cl)c6F)=CC(=O)N54)[nH]3)cc2CO1 (relative stereo) [Example 277, 6-(2-((3S,8aR)-7-(3-Chloro-2-fluoro-6-(1H-tetrazol-1-yl)phenyl)-5-oxo-1,2,3,5,8,8a-hexahydroindolizin-3-yl)-1H-imidazol-5-yl)-1,4-dihydro-2H-benzo[d][1,3]oxazin-2-one]
14 |  | 0.8 | 0.2 | NC(=O)c1ccc(-c2nc([C@@H]3CC[C@@H]4CC(c5c(-n6cnnn6)ccc(Cl)c5F)=CC(=O)N43)[nH]c2Cl)s1 [Example 211, 5-(5-Chloro-2-((3S,8aR)-7-(3-chloro-2-fluoro-6-(1H-tetrazol-1-yl)phenyl)-5-oxo-1,2,3,5,8,8a-hexahydroindolizin-3-yl)-1H-imidazol-4-yl)thiophene-2-carboxamide]
15 | 1.3 | 15.6 |  | O=C1C=C(c2c(-n3cnnn3)ccc(Cl)c2F)CC2CC[C@@H](c3nc(Cl)c(-c4cc[nH]c(=O)c4)[nH]3)N12 (stereo partly drawn) [Example 199, (3S)-7-(3-chloro-2-fluoro-6-(1H-tetrazol-1-yl)phenyl)-3-(4 chloro-5-(2-oxo-1,2-dihydropyridin-4-yl)-1H-imidazol-2-yl)-2,3,8,8a-tetrahydroindolizin-5(1H)-one]
16 |  | 42.6 | 5.7 | [2H][C@]12CC[C@@H](c3ncc(-c4ccnc(CO)c4F)[nH]3)N1C(=O)C=C(c1c(-n3cnnn3)ccc(Cl)c1F)C2 (relative stereo) [Example 47, (3S,8aR*)-7-(3-Chloro-2-fluoro-6-(1H-tetrazol-1-yl)phenyl)-3-(5-(3-fluoro-2-(hydroxymethyl)pyridin-4-yl)-1H-imidazol-2-yl)-2,3,8,8a-tetrahydroindolizin-5(1H)-one-8a-d]
17 |  | 323 | > 100 | Cn1cc(-c2ccccc2NC(=O)C2CC2)nc1[C@@H]1CC[C@H]2CC(c3c(-n4cnnn4)ccc(Cl)c3F)=CC(=O)N21 (relative stereo) [Example 304, N-(2-(2-((3S,8aS*)-7-(3-Chloro-2-fluoro-6-(1H-tetrazol-1-yl)phenyl)-5-oxo-1,2,3,5,8,8a-hexahydroindolizin-3-yl)-1-methyl-1H-imidazol-4-yl)phenyl)cyclopropanecarboxamide]
18 | 0.7 | 15.6 |  | Cn1ncc(NC(=O)C2CC2)c1-c1c[nH]c([C@@H]2CC[C@H]3CC(c4c(-n5cnnn5)ccc(Cl)c4F)=CC(=O)N32)n1 [Example 247, N-[5-[2-[(3S,8aS)-7-[3-Chloro-2-fluoro-6-(tetrazol-1-yl)phenyl]-5-oxo-2,3,8,8a-tetrahydro-1H-indolizin-3-yl]-1H-imidazol-4-yl]-1-methyl-pyrazol-4-yl]cyclopropanecarboxamide]
19 | 1 | 9 |  | O=C(Nc1ccncc1-c1c[nH]c([C@@H]2CC[C@H]3CC(c4c(-n5cnnn5)ccc(Cl)c4F)=CC(=O)N32)n1)C1CC1 [Example 267, N-[3-[2-[(3S,8aS)-7-[3-Chloro-2-fluoro-6-(tetrazol-1-yl)phenyl]-5-oxo-2,3,8,8a-tetrahydro-1H-indolizin-3-yl]-1H-imidazol-4-yl]-4-pyridyl]cyclopropanecarboxamide]
20 | 0.6 | 7.7 |  | [2H]c1cc(-c2[nH]c([C@@H]3CC[C@@H]4CC(c5c(-n6cnnn6)ccc(Cl)c5F)=CC(=O)N43)nc2[2H])c(F)nc1N [Example 145, (3S,8aR)-3-[5-(6-amino-5-deuterio-2-fluoro-3-pyridyl)-4-deuterio-1H-imidazol-2-yl]-7-[3-chloro-2-fluoro-6-(tetrazol-1-yl)phenyl]-2,3,8,8a-tetrahydro-1H-indolizin-5-one]
